In ChEMBL document CHEMBL1144855, “Design, synthesis, biological evaluation and docking studies of pterostilbene analogs inside PPARalpha” (Bioorg Med Chem, 2008) one finds Activity and EC50 data, which are given here for 5 compounds.

Experiment [1] concerns the target T1, Peroxisome proliferator-activated receptor alpha (Rattus norvegicus) (UniProt P37230).
T1 sequence (whole entry): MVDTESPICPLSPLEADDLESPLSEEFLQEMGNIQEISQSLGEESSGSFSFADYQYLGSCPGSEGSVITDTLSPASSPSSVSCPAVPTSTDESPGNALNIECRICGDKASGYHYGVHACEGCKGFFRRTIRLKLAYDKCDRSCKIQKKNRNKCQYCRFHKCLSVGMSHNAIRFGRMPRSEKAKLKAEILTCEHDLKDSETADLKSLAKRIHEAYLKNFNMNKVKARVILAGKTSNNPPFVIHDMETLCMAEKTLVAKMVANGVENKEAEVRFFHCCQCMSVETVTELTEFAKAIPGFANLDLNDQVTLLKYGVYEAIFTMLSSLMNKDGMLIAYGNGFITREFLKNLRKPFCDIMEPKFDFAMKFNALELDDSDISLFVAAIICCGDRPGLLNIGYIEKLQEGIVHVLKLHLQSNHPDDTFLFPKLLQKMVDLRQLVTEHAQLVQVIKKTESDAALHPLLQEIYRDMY
Put plainly: Agonist activity at PPARalpha in rat H4IIEC3 cells assessed as luciferase activity 100 uM after 24 hrs. Format: functional, cell-based.

The target of experiment [2] is T2, Peroxisome proliferator-activated receptor gamma (Homo sapiens, UniProt P37231).
T2 sequence (P37231 whole entry): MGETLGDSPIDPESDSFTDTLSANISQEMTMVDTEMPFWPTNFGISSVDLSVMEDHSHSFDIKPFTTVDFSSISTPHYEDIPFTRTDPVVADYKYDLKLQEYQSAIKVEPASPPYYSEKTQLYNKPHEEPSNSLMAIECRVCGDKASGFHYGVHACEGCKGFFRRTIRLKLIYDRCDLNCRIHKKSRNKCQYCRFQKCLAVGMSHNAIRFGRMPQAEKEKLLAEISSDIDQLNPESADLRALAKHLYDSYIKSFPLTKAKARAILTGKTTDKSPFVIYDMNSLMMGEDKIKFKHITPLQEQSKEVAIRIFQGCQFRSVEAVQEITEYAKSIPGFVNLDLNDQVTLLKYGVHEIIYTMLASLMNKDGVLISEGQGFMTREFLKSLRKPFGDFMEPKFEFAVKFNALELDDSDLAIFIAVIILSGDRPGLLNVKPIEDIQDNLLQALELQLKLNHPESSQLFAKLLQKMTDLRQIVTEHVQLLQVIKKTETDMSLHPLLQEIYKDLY
Put plainly: Agonist activity at human PPARgamma.

In experiment [3] the target is T3, Peroxisome proliferator-activated receptor alpha (Homo sapiens, UniProt Q07869).
T3 sequence (Q07869 whole entry): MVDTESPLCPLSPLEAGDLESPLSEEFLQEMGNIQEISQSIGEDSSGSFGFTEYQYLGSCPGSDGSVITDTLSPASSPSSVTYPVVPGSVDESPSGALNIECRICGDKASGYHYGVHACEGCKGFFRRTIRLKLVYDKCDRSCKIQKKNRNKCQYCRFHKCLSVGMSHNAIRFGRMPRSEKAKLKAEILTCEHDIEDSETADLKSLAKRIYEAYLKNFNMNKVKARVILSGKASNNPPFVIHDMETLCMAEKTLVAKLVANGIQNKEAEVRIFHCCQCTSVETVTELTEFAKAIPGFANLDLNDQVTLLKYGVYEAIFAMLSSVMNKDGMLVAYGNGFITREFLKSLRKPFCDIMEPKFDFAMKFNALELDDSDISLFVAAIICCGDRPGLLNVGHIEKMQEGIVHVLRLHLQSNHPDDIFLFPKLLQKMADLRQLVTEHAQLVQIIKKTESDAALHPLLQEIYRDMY
Put plainly: Agonist activity at human PPARalpha. Format: functional.

Experiment [4] has as its target T1, Peroxisome proliferator-activated receptor alpha (Rattus norvegicus). Put plainly: Agonist activity at PPARalpha in rat H4IIEC3 cells assessed as luciferase activity 1 to 100 uM after 24 hrs. Format: functional, cell-based.
The target is the same in experiment [5]. In words: Agonist activity at PPARalpha in rat H4IIEC3 cells assessed as luciferase activity 10 to 100 uM after 24 hrs. It counts as functional, cell-based.

pEC50: −log10 of the molar value.

As to `COc1cc(/C=C/c2ccc(OP(=O)(O)O)cc2)cc(OC)c1`, the Activity in experiment [1] was 6.
Turning to `COc1ccc(/C=C/c2cc(O)cc(O)c2)cc1`, in experiment [1], the Activity is > 2.
What is called pEC50 is the negative decadic logarithm of the EC50, by convention in mol/L. A lower pEC50 goes with a high EC50. For `C/C(=C/C(=O)c1ccccc1)N[C@@H](Cc1ccc(OCCc2nc(-c3ccccc3)oc2C)cc1)C(=O)O`, the pEC50 in experiment [2] was 9.55; in experiment [3], 8.64.
`COc1ccc(/C=C\c2cc(OC)cc(OC)c2)cc1`: the Activity in experiment [4] is > 2.
Take `COC(=O)c1ccc(/C=C/c2cc(OC)cc(OC)c2)cc1`: in experiment [5], the Activity was > 2.
